Values of other authors as cited in patent US7025979B2, “Male contraceptive formulation comprising norethisterone” (Schering AG, priority 2000, dated 2006).

What was measured:
spermatogenesis = details: use of the progestin; literature (Merrigiola et al, Bebb et al)
[1] = in higher doses; literature (Merrigiola et al, Bebb et al)

In the case of `CC(=O)O[C@]1(C(C)=O)CC[C@H]2[C@@H]3C=C(Cl)C4=CC(=O)[C@@H]5C[C@@H]5[C@]4(C)[C@H]3CC[C@@]21C` [cyproterone acetate], the suppression of spermatogenesis (spermatogenesis) is listed as “ineffective in the suppression of spermatogenesis” and the “red blood cell count” value [1] is listed as “significant decreases in red blood cell count”.

In the case of `C#C[C@]1(O)CC[C@H]2[C@@H]3CCC4=CC(=O)CC[C@@H]4[C@H]3CC[C@@]21CC` [levonorgestrel], the “red blood cell count” value [1] is given as “significant decreases in red blood cell count”.
